Publication PMC6063800 (Peptides, 2018)
Counter-ions that a name gives are not always drawn. No end group written: not given here.

Key:
[1] = test system: Human red blood cells (hRBC); assay: Hemolytic assay; assay type: cell-based; settings: red cells of human, 1 h
[2] = test system: Escherichia coli ATCC 25922; assay: microbe, parasite or virus in culture; assay type: cell-based; settings: for MIC, EC: ATCC 25922, 20 h
Bacillus subtilis 168 = assay: microbe, parasite or virus in culture; assay type: cell-based; settings: for MIC, BS: 168, 20 h
[3] = test system: Staphylococcus aureus USA300; assay: microbe, parasite or virus in culture; assay type: cell-based; settings: for MIC, SA: USA300, 20 h
[4] = test system: Pseudomonas aeruginosa PAO1; assay: microbe, parasite or virus in culture; assay type: cell-based; settings: PAO1, 20 h
C. tropicalis ATCC 13803 = assay type: cell-based, Candida tropicalis; settings: ATCC 13803, 48 h
C. glabrata ATCC 2001 = assay type: cell-based, Candida glabrata; settings: ATCC 2001, 48 h
[5] = test system: Klebsiella pneumoniae ATCC 13883; assay: microbe, parasite or virus in culture; assay type: cell-based; settings: for MIC, KP: ATCC 13883, 20 h
[6] = test system: Candida albicans ATCC 10231; assay type: cell-based; settings: ATCC 10231, 48 h
S. aureus USA300 biofilm = assay: Disruption of 24-h preformed biofilms; assay type: cell-based, Staphylococcus aureus; settings: linezolid in the presence of 1.56 μM temporin-1OLa versus antibiotic alone, XTT
S. aureus USA300 = assay: Checkerboard synergy of peptide and antibiotics; assay type: cell-based, Staphylococcus aureus; settings: in combination with temporin-1OLa

Compound	HL50 (peptide concentration that causes 50% hemolysis) [1] [µM]	MIC, EC [2] [µM]	MIC, BS (Bacillus subtilis 168) [µM]	MIC, SA [3] [µM]	MIC, PA [4] [µM]	MIC, C. tropicalis (C. tropicalis ATCC 13803) [µM]	MIC, C. glabrata (C. glabrata ATCC 2001) [µM]	MIC, KP [5] [µM]	MIC, C. albicans [6] [µM]	MIC ([2]; Escherichia coli, ATCC25922, 20 h, read-out: MIC, EC) [µM]	MIC (Bacillus subtilis 168; Bacillus subtilis, 168, 20 h, read-out: MIC, BS) [µM]	MIC ([3]; Staphylococcus aureus, MRSA|USA300, 20 h, read-out: MIC, SA) [µM]	MIC ([4]; Pseudomonas aeruginosa, read-out: MIC, PA) [µM]	MIC ([5]; Klebsiella pneumoniae, ATCC13883, 20 h, read-out: MIC, KP) [µM]	disruption of 24 h established biofilms by combination (S. aureus USA300 biofilm)	combined effect with the peptide (S. aureus USA300)
FLSAITSILGKFF [temporin-1SPa]	37.5	>50	12.5	6.3	>50	6.2	25	>50	25							
IPPFIKKVLTTVF [temporin-CPa]		12.5	50	≥25	>50	3.1 to 6.2	12.5	50	25							
FLPLLASLFSRLF [temporin-1Oc]	<12.5	>50	12.5		>50	1.6 to 3.1	25	>50	25							
CN[C@H](CC(C)C)C(=O)N[C@H]1C(=O)N[C@@H](CC(N)=O)C(=O)N[C@H]2C(=O)N[C@H]3C(=O)N[C@H](C(=O)N[C@H](C(=O)O)c4cc(O)cc(O)c4-c4cc3ccc4O)[C@H](O)c3ccc(c(Cl)c3)Oc3cc2cc(c3O[C@@H]2O[C@H](CO)[C@@H](O)[C@H](O)[C@H]2O[C@H]2C[C@](C)(N)[C@H](O)[C@H](C)O2)Oc2ccc(cc2Cl)[C@H]1O [Vancomycin, vancomycin hydrochloride, reference compound]										> 50	> 3.1	0.78	> 50	> 50		
FLPIVGRLISGIL [temporin-CPb]		>50	25 to 50	12.5	>50	6.2 to 12.5	>50	>50	50							
SILPTIVSFLSKVF [temporin-1Ga]	12.5	>50	6.3	3.1	>50	3.1	12.5	>50	12.5							
CC(=O)NC[C@H]1CN(c2ccc(N3CCOCC3)c(F)c2)C(=O)O1 [linezolid]															reduce biofilms more effectively	additive effect
